Source: patent publication US12287324B2, “Companion diagnostics for NSAIDS and donepezil for treating specific subpopulations of patients suffering from Alzheimer's disease” (University of North Texas Health Science Center at Fort …, priority 2018, dated 2025)
“Also recorded” adds a separate entry of the source.

Test system: Individuals with a diagnosis of probable AD
Assay: ADCS anti-inflammatory clinical trial, 1-year exposure; MMSE and CDR-SB outcomes by treatment arm and proinflammatory endophenotype
Type: in vivo, human
Details: for participants with mild decline in MMSE (number) / participants with mild decline in MMSE (percent of arm): MMSE decline of 1-2 points over 12 mo; for participants who declined 3 or more points on MMSE (number) / participants who declined 3 or more points on MMSE (percent of arm): over 12-months (adverse responders); for participants with improvement in MMSE scores over 12-months (number) / participants with improvement in MMSE scores over 12-months (percent of arm): responders = improved MMSE >=1 point over 12 mo; for MMSE Change, mean (SD): change = screening − 12-month, positive = decline
Source text: Data source. Banked plasma samples from the Alzheimer's Disease Cooperative Studies (ADCS) anti-inflammatory clinical trial were used. […] This was a multicenter, randomized, double-blind, placebo-controlled parallel group trial with 1-year exposure to study medications across forty ambulatory treatment centers affiliated with the ADCS. […] Inclusion criteria were as follows: age 50 or older, MMSE score of 13-26 and diagnosis of probable AD. Stable use of cholinesterase inhibitors was allowed.
Statistical Analyses. Biomarker data were transformed using the Box-Cox transformation per previously published protocols, relevant portions incorporated herein by reference. Support vector machine (SVM) analyses were utilized to build the proteomic profiles simultaneously classifying all outcome groups in R per the inventors previously published methods, relevant portions incorporated herein by reference. SVM analyses are capable of simultaneously taking into account large volume data to generate an overall profile (e.g., over and under-expression of select proteins) that most accurately classifies multiple outcomes rather than only binary outcomes. MMSE change scores were utilized as the outcome variables for the study (i.e. MMSE screening−MMSE 12-month follow-up=MMSE change). Participants were classified into four groups based on change in MMSE scores over 12-months: responders (improved MMSE scores of >=1 point over 12 mo), stable (no change in MMSE over 12 months), non-responders (MMSE decline of 1-2 points over 12 mo) or adverse responders (MMSE decline of 3 or more points over 12 mo). To build inflammatory profiles of treatment response, group status (i.e. treatment response) was utilized as the outcome variable in SVM models with pre-randomization inflammatory proteins as the predictor variable. In order to determine if the proinflammatory profile of treatment response was drug-specific, analyses were conducted utilizing the total sample as well as within specific study treatment arms.
Next, MMSE change scores were dichotomized into improvement versus stable or decline over the 12-mo period.

[1] = within treatment arm, no change in MMSE over 12 months
[2] = High proinflammatory endophenotype (n = 8)
[3] = Low proinflammatory endophenotype (n = 7)
[4] = Middle proinflammatory endophenotype (n = 36)

CS(=O)(=O)c1ccc(C2=C(c3ccccc3)C(=O)OC2)cc1 [Rofecoxib, rofecoxib]
participants with mild decline in MMSE (number) (within treatment arm): 14
participants with mild decline in MMSE (percent of arm) (within treatment arm): 25%
participants who remained stable on MMSE (number) [1]: 8
participants who remained stable on MMSE (percent of arm) [1]: 15%
participants who declined 3 or more points on MMSE (number) (within treatment arm): 23
participants who declined 3 or more points on MMSE (percent of arm) (within treatment arm): 42%
participants with improvement in MMSE scores over 12-months (number) (within treatment arm): 9
participants with improvement in MMSE scores over 12-months (percent of arm) (within treatment arm): 16%

COc1ccc2cc([C@H](C)C(=O)O)ccc2c1 [Naproxen, naproxen]
CDR-SB 12 mo, mean (SD) [2]: 5.36 (3.0)
CDR-SB Change, mean (SD) [2]: 0.7 (2.5)
MMSE 12 mo, mean (SD) [2]: 21.2 (5.3)
MMSE Change, mean (SD) (High proinflammatory endophenotype (n = 8), p = 0.02 vs placebo high group): −0.13 (3.1)
CDR-SB 12 mo, mean (SD) [3]: 9.8 (4.1)
CDR-SB Change, mean (SD) [3]: −2.5 (2.1)
MMSE 12 mo, mean (SD) [3]: 16.1 (5.5)
MMSE Change, mean (SD) [3]: 1.5 (3.1)
CDR-SB 12 mo, mean (SD) [4]: 8.4 (4.1)
CDR-SB Change, mean (SD) [4]: −2.6 (2.5)
MMSE 12 mo, mean (SD) [4]: 16.5 (6.4)
MMSE Change, mean (SD) [4]: 4.2 (4.6)
decline / change in MMSE scores over a 12 mo period as compared to the placebo group (high end of the proinflammatory endophenotype (CRP>1015.52 & TNFα>0.64), F[1,6]=8.2, p=0.03): significantly reduced decline; also recorded: significantly better
average score of dichotomized MMSE change (improvement versus stable or decline) (high proinflammatory endophenotype, 12-mo period, Placebo group 0.25): 0.63
patients improved on MMSE (dichotomized) (high proinflammatory endophenotype, 12-mo period, Placebo group 25%): 63%
improvement in MMSE scores over 12 months as compared to the Placebo group (high proinflammatory endophenotype, age, gender, education, APOE4 as covariates, F[1,6]=10.9, p=0.02): significant improvement
cognitive course (MMSE) in the low end of the proinflammatory endophenotype (low end, CRP and TNFα cut-scores of the naproxen-specific algorithm): trend towards those in the low end to experience significant decline
participants with mild decline in MMSE (number) (within treatment arm): 10
participants with mild decline in MMSE (percent of arm) (within treatment arm): 20%
participants who declined 3 or more points on MMSE (number) (within treatment arm): 26
participants who declined 3 or more points on MMSE (percent of arm) (within treatment arm): 51%
participants with improvement in MMSE scores over 12-months (number) (within treatment arm): 10
participants with improvement in MMSE scores over 12-months (percent of arm) (within treatment arm): 20%
